According to US10759766B2, “Certain chemical entities, compositions, and methods” (NeuPharma, Inc., priority 2011, dated 2020):
pIC50: −log10 of the molar value.

Legend:
A549 cells = assay: Inhibition of cancer cell growth, MTT assay, A549; format: cell-based; details: Homo sapiens, A549, 72 h exposure
Experimental: (§1) Inhibition of cell growth by compounds was measured using MTT assay (Mosmann, T., Journal of Immunological Methods, 1983, 65, 55-63). Tumor cell lines were purchased from ATCC (American Type Culture Collection, Manassas, Va.). All cell lines were maintained in RPMI 1640 (Hyclone) supplemented with 10% fetal bovine serum (FBS, Hyclone), glutamine (2 mM, Hyclone), and antibiotics (penicillin 100 U/mL and streptomycin 50 μg/mL) at 37° C. in a humidified atmosphere of 5% CO2 in air. Taxol (as a positive control, Sigma) and compounds were dissolved in DMSO (Sigma), and the final concentration of DMSO in the medium was 1%. Tumor cells were plated in 96-well plates at densities of about 4000 cells/well of a 96-well plate and allowed to adhere/grow for 24 h. They were then treated with various concentrations of drug for 72 h. 3-(4,5-Dimethylthiazol-2-yl)-2,5-diphenyltetrazolium bromide (MTT, Sigma) was used to determine the number of viable cells at the time of compound addition and the number of cells remaining after 72 h compound exposure. The number of cells remaining after 72 h was compared to the number of viable cells at the time of compound addition by measuring the absorbance at 570 nm, allowing for the calculation of growth inhibition.
(§2) All concentrations of compounds were tested in triplicate and controls were averaged over 4 wells. IC50 was calculated by plotting the concentration of compound vs the percentage of inhibition in treated wells using GraphPad Prism 5. […] The scale utilized in Table 6 is as follows: +++ less than 1000 nM; ++ between 1000 nM and 5000 nM; and + greater than 5000 nM. The scale utilized in Table 7 is as follows: +++ less than 2000 nM; ++ between 2000 nM and 5000 nM; and + greater than 5000 nM.

BRAF V600E = BRAF V600E (Homo sapiens (Human), UniProt P15056, V600E); assay: Z′-LYTE kinase inhibition assay (Invitrogen), BRAF V600E; format: biochemical; details: 1 μM compound, Z′-LYTE method; read-out: % inhibition at 1 μM against BRAF V600E
Sequence of BRAF V600E (P15056 whole entry V600E): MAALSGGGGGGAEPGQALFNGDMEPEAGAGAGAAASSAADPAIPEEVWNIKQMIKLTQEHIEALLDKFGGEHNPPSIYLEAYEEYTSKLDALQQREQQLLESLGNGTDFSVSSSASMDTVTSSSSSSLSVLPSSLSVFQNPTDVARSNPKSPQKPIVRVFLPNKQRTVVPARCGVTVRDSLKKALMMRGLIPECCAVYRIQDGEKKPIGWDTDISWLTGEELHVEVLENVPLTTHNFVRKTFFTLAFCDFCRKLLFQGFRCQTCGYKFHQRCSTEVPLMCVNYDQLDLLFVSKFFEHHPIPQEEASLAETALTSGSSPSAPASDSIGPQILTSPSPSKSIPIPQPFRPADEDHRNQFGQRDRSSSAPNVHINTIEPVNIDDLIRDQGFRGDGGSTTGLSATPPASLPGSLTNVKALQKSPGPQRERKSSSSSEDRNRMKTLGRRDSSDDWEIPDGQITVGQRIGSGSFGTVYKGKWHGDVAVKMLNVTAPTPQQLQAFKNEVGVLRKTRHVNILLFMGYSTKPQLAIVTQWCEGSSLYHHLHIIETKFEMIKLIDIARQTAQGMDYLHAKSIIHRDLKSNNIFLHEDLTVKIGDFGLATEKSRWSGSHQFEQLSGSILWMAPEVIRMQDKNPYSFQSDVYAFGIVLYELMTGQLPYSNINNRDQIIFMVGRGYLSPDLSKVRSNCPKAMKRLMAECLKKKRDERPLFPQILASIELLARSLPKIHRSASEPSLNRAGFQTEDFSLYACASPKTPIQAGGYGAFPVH
Experimental: (§3) Inhibitory activities Inhibitory activities of compounds against BRAF, and BRAF V600E were measured by Invitrogen using Z′-LYTE® Method as briefly described in the following. 4× Test compounds are dissolved in 1% DMSO. […] ATP solutions are diluted to a 4×ATP working concentration in Kinase Buffer (50 mM HEPES pH 7.5, 0.01% BRIJ-35, 10 mM MgCl2, 1 mM EGTA). Reaction started by 30-second shaking of mixture consisting of 2.5 μL 4× test compound, […] and 2.5 μL 4×ATP Solution on Bar-coded Corning, low volume NBS, black 384-well plate (Corning Cat. #3676). Then the mixture was incubated for 60-minute at room temperature for the kinase reaction, followed by addition of 5 μL of a 1:1024 dilution of development reagent A and 30-second plate shake. The mixture was then incubated for another 60-minute at room temperature for development reaction. Fluorescence was read by plate reader. IC50 was calculated by plotting the concentration of compound vs the percentage of inhibition in treated wells using GraphPad Prism 5.
The scale utilized in Table 3 is as follows: +++ less than 100 nM; and ++ greater than 100 nM.

A375 cells = assay: Inhibition of cancer cell growth, MTT assay, A375; format: cell-based; details: Homo sapiens, A-375, 72 h exposure
Experimental: as §1, §2

KDR (VEGFR2) = KDR (VEGFR2) (Homo sapiens (Human), UniProt P35968); assay: Z′-LYTE kinase inhibition assay (Invitrogen), KDR; format: biochemical; details: 1 μM compound, Z′-LYTE method; read-out: % inhibition at 1 μM against KDR
Sequence of KDR (VEGFR2) (P35968 20-1356): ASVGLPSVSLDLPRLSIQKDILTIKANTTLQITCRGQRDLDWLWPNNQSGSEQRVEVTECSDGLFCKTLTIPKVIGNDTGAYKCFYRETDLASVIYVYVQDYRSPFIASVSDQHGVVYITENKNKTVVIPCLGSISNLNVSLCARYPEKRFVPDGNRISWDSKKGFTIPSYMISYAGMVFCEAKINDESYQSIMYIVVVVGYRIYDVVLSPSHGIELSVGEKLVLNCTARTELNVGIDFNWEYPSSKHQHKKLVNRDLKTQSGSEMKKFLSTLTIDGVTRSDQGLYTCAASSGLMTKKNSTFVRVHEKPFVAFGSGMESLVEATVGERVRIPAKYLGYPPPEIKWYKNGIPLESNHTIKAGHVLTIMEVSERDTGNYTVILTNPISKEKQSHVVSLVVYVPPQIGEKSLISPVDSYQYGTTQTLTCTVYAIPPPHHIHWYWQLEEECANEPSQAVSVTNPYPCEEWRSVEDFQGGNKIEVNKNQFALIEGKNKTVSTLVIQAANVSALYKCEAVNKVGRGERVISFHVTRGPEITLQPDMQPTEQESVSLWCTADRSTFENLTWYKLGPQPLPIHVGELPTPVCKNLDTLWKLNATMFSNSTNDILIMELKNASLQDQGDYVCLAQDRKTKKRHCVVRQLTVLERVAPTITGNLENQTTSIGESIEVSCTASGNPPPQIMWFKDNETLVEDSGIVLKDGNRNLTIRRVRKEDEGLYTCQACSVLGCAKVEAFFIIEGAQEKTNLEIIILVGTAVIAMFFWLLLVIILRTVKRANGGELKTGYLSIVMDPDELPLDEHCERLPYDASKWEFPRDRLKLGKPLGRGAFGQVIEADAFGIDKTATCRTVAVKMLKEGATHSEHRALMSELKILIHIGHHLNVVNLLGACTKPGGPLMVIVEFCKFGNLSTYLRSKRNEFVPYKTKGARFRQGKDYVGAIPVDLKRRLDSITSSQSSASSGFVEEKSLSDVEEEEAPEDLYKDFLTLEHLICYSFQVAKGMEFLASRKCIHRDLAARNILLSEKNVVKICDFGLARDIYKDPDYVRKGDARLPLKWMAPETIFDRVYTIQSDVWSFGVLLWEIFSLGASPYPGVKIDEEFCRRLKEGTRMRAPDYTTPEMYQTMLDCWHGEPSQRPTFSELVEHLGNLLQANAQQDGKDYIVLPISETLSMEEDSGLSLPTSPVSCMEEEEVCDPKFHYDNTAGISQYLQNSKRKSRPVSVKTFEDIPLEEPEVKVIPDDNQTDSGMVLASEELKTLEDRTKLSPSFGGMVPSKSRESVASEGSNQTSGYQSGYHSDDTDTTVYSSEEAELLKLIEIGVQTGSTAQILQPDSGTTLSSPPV
Experimental: as §3
Inhibitory activities of compounds against KDR (VEGFR2) were also measured by Invitrogen using Z′-LYTE® Method as described above with the following modification. The 2× KDR (VEGFR2)/Tyr 01 mixture is prepared in 50 mM HEPES pH 7.5, 0.01% BRIJ-35, 10 mM MgCl2, 1 mM EGTA. The final 10 μL Kinase Reaction consists of 0.5-11.7 ng KDR (VEGFR2) and 2 μM Tyr 01 in 50 mM HEPES pH 7.5, 0.01% BRIJ-35, 10 mM MgCl2, 1 mM EGTA. After the 1 hour Kinase Reaction incubation, 5 μL of a 1:256 dilution of Development Reagent B is added.
The scale utilized in Table 5 is as follows: +++ less than 100 nM; and ++ greater than 100 nM

| pIC50 (A549 cells) | inhibition at 1 µM (BRAF V600E) | pIC50 (A375 cells) | inhibition at 1 µM (KDR (VEGFR2)) | SMILES |
| --- | --- | --- | --- | --- |
| 5.30 to 5.70 | > 89% | > 6.00 | < 70% | O=C(Nc1ccc(Cl)cc1)Nc1cc(F)cc(C(=O)c2ccc3ncc(N4CCOCC4)nc3c2)c1 [Compound C045, 1-(4-chlorophenyl)-3-(3-fluoro-5-(3-morpholinoquinoxaline-6-carbonyl)phenyl)urea] |
| > 5.70 | > 89% | > 6.00 | 70 to 89% | O=C(Nc1ccc(Cl)c(F)c1)Nc1ccc(F)c(C(=O)c2ccc3ncc(N4CCOCC4)nc3c2)c1 [Compound C052, 1-(4-chloro-3-fluorophenyl)-3-(4-fluoro-3-(3-morpholinoquinoxaline-6-carbonyl)phenyl)urea] |
| > 5.70 | > 89% | > 6.00 | > 89% | O=C(Nc1ccc(Cl)cc1)Nc1ccc(F)c(C(=O)c2ccc3ncc(N4CCOCC4)nc3c2)c1 [Compound C054, 1-(4-chlorophenyl)-3-(4-fluoro-3-(3-morpholinoquinoxaline-6-carbonyl)phenyl)urea] |
| > 5.70 | > 89% | > 6.00 | > 89% | O=C(Nc1ccc(F)c(Cl)c1)Nc1ccc(F)c(C(=O)c2ccc3ncc(N4CCOCC4)nc3c2)c1 [Compound C055, 1-(3-chloro-4-fluorophenyl)-3-(4-fluoro-3-(3-morpholinoquinoxaline-6-carbonyl)phenyl)urea] |
| 5.30 to 5.70 | > 89% | > 6.00 | > 89% | O=C(Nc1cccc(Cl)c1)Nc1ccc(F)c(C(=O)c2ccc3ncc(N4CCOCC4)nc3c2)c1 [Compound C056, 1-(3-chlorophenyl)-3-(4-fluoro-3-(3-morpholinoquinoxaline-6-carbonyl)phenyl)urea] |
| > 5.70 | > 89% | > 6.00 | > 89% | O=C(Nc1ccc(C(F)(F)F)cc1)Nc1ccc(F)c(C(=O)c2ccc3ncc(N4CCOCC4)nc3c2)c1 [Compound C057, 1-(4-fluoro-3-(3-morpholinoquinoxaline-6-carbonyl)phenyl)-3-(4-(trifluoromethyl)phenyl)urea] |
| > 5.70 | > 89% | > 6.00 | > 89% | O=C(Nc1ccc(Cl)c(Cl)c1)Nc1ccc(F)c(C(=O)c2ccc3ncc(N4CCOCC4)nc3c2)c1 [Compound C058, 1-(3,4-dichlorophenyl)-3-(4-fluoro-3-(3-morpholinoquinoxaline-6-carbonyl)phenyl)urea] |

The remaining lines, values behind:

| SMILES | pIC50 (A549 cells) | inhibition at 1 µM (BRAF V600E) | pIC50 (A375 cells) | inhibition at 1 µM (KDR (VEGFR2)) |
| --- | --- | --- | --- | --- |
| O=C(Nc1ccc(Cl)c(C(F)(F)F)c1)Nc1cc(F)c(F)c(C(=O)c2ccc3ncc(N4CCOCC4)nc3c2)c1F [Compound C032, 1-(4-chloro-3-(trifluoromethyl)phenyl)-3-(2,4,5-trifluoro-3-(3-morpholinoquinoxaline-6-carbonyl)phenyl)urea] | 5.30 to 5.70 | < 70% | 5.30 to 6.00 | < 70% |
| O=C(Nc1cccc(F)c1)Nc1cc(F)c(F)c(C(=O)c2ccc3ncc(N4CCOCC4)nc3c2)c1F [Compound C033, 1-(3-fluorophenyl)-3-(2,4,5-trifluoro-3-(3-morpholinoquinoxaline-6-carbonyl)phenyl)urea] | 5.30 to 5.70 | 70 to 89% | 5.30 to 6.00 | < 70% |
| O=C(Nc1cccc(C(F)(F)F)c1)Nc1cc(F)c(F)c(C(=O)c2ccc3ncc(N4CCOCC4)nc3c2)c1F [Compound C034, 1-(2,4,5-trifluoro-3-(3-morpholinoquinoxaline-6-carbonyl)phenyl)-3-(3-(trifluoromethyl)phenyl)urea] | 5.30 to 5.70 | < 70% | 5.30 to 6.00 | < 70% |
| O=C(Nc1cccc(F)c1)Nc1cc(F)cc(C(=O)c2ccc3ncc(N4CCOCC4)nc3c2)c1 [Compound C037, 1-(3-fluoro-5-(3-morpholinoquinoxaline-6-carbonyl)phenyl)-3-(3-fluorophenyl)urea] | < 5.30 | > 89% | 5.30 to 6.00 | < 70% |
| O=C(Nc1cccc(C(F)(F)F)c1)Nc1cc(F)c(F)c(C(=O)c2ccc3nccnc3c2)c1 [Compound C042, 1-(3,4-difluoro-5-(quinoxaline-6-carbonyl)phenyl)-3-(3-(trifluoromethyl)phenyl)urea] | 5.30 to 5.70 | > 89% | 5.30 to 6.00 | < 70% |
| O=C(Nc1ccc(F)cc1)Nc1cc(F)cc(C(=O)c2ccc3ncc(N4CCOCC4)nc3c2)c1 [Compound C043, 1-(3-fluoro-5-(3-morpholinoquinoxaline-6-carbonyl)phenyl)-3-(4-fluorophenyl)urea] | < 5.30 | > 89% | < 5.30 | < 70% |
| O=C(Nc1cc(F)cc(C(=O)c2ccc3ncc(N4CCOCC4)nc3c2)c1)Nc1ccc(F)c(Cl)c1 [Compound C044, 1-(3-chloro-4-fluorophenyl)-3-(3-fluoro-5-(3-morpholinoquinoxaline-6-carbonyl)phenyl)urea] | 5.30 to 5.70 | > 89% | 5.30 to 6.00 | 70 to 89% |
| O=C(Nc1cccc(Cl)c1)Nc1cc(F)cc(C(=O)c2ccc3ncc(N4CCOCC4)nc3c2)c1 [Compound C047, 1-(3-chlorophenyl)-3-(3-fluoro-5-(3-morpholinoquinoxaline-6-carbonyl)phenyl)urea] | 5.30 to 5.70 | > 89% | 5.30 to 6.00 | < 70% |
| O=C(Nc1ccc(C(F)(F)F)cc1)Nc1cc(F)cc(C(=O)c2ccc3ncc(N4CCOCC4)nc3c2)c1 [Compound C048, 1-(3-fluoro-5-(3-morpholinoquinoxaline-6-carbonyl)phenyl)-3-(4-(trifluoromethyl)phenyl)urea] | 5.30 to 5.70 | > 89% | > 6.00 | < 70% |
| O=C(Nc1cc(F)cc(C(=O)c2ccc3ncc(N4CCOCC4)nc3c2)c1)Nc1ccc(F)c(F)c1 [Compound C049, 1-(3,4-difluorophenyl)-3-(3-fluoro-5-(3-morphlinoquinoxaline-6-carbonyl)phenyl)urea] | 5.30 to 5.70 | > 89% | 5.30 to 6.00 | < 70% |
| O=C(Nc1cc(F)cc(C(=O)c2ccc3ncc(N4CCOCC4)nc3c2)c1)Nc1ccc(Cl)c(Cl)c1 [Compound C050, 1-(3,4-dichlorophenyl)-3-(3-fluoro-5-(3-morpholinoquinoxaline-6-carbonyl)phenyl)urea] | > 5.70 | > 89% | > 6.00 | 70 to 89% |
| O=C(Nc1cc(F)cc(C(=O)c2ccc3ncc(N4CCOCC4)nc3c2)c1)Nc1ccc(Cl)c(F)c1 [Compound C051, 1-(4-chloro-3-fluorophenyl)-3-(3-fluoro-5-(3-morpholinoquinoxaline-6-carbonyl)phenyl)urea] | 5.30 to 5.70 | > 89% | 5.30 to 6.00 | < 70% |
